According to PubChem BioAssay AID248 (DTP/NCI, 2004):
Values joined by “and” are separate entries in the source; they are usually repeats but may differ in a detail not shown here. Identical values can stand only once. Inconclusive results and toxic doses are left out. No stated cut-off is given here; in the data, active means T/C of 150% or more; inactive means T/C below 125%.

System: L1210 leukemia ip in BDF1 mice, survival T/C
Assay: NCI In Vivo Anticancer Drug Screen. Data for tumor model L1210 Leukemia (intraperitoneal) in B6D2F1 (BDF1) mice
Conditions: endpoint: mean survival time, higher = longer survival
Method in brief: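 Antitumor effect is assessed in tumor-bearing animals. Survival in the compound arm is compared with a vehicle-dosed control arm and expressed as their quotient.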

[1] = dose: 100.0 mg/kg/injection, schedule: Q04DX003 (ip), vehicle: saline with Tween-80
[2] = dose: 200.0 mg/kg/injection, schedule: Q04DX003 (ip), vehicle: saline with Tween-80
[3] = dose: 100.0 mg/kg/injection, schedule: Q01DX009 (ip), vehicle: Klucel (hydroxypropylcellulose) (HPC)
[4] = dose: 100.0 mg/kg/injection, schedule: Q01DX001 (ip), vehicle: saline
[5] = dose: 200.0 mg/kg/injection, schedule: Q01DX001 (ip), vehicle: saline
[6] = dose: 400.0 mg/kg/injection, schedule: Q01DX001 (ip), vehicle: saline
[7] = dose: 12.5 mg/kg/injection, schedule: Q01DX009 (ip), vehicle: saline
[8] = dose: 50.0 mg/kg/injection, schedule: Q01DX009 (ip), vehicle: saline
[9] = dose: 100.0 mg/kg/injection, schedule: Q01DX009 (ip), vehicle: saline
[10] = dose: 100.0 mg/kg/injection, schedule: Q01DX001 (ip), vehicle: carboxymethylcellulose (CMC)
[11] = dose: 200.0 mg/kg/injection, schedule: Q01DX001 (ip), vehicle: carboxymethylcellulose (CMC)
[12] = dose: 400.0 mg/kg/injection, schedule: Q01DX001 (ip), vehicle: carboxymethylcellulose (CMC)
[13] = dose: 100.0 mg/kg/injection, schedule: Q04DX003 (ip), vehicle: saline
[14] = dose: 200.0 mg/kg/injection, schedule: Q04DX003 (ip), vehicle: saline
[15] = dose: 200.0 mg/kg/injection, schedule: Q01DX009 (ip), vehicle: Klucel (hydroxypropylcellulose) (HPC)
[16] = dose: 400.0 mg/kg/injection, schedule: Q01DX009 (ip), vehicle: Klucel (hydroxypropylcellulose) (HPC)
[17] = dose: 100.0 mg/kg/injection, schedule: Q04DX002 (ip), vehicle: Klucel (hydroxypropylcellulose) (HPC)
[18] = dose: 200.0 mg/kg/injection, schedule: Q04DX002 (ip), vehicle: Klucel (hydroxypropylcellulose) (HPC)
[19] = dose: 400.0 mg/kg/injection, schedule: Q04DX002 (ip), vehicle: Klucel (hydroxypropylcellulose) (HPC)
[20] = dose: 100.0 mg/kg/injection, schedule: Q01DX009 (ip), vehicle: saline with Tween-80
[21] = dose: 200.0 mg/kg/injection, schedule: Q01DX009 (ip), vehicle: saline with Tween-80
[22] = dose: 400.0 mg/kg/injection, schedule: Q01DX009 (ip), vehicle: saline with Tween-80
[23] = dose: 400.0 mg/kg/injection, schedule: Q04DX003 (ip), vehicle: saline with Tween-80
[24] = dose: 50.0 mg/kg/injection, schedule: Q01DX001 (ip), vehicle: carboxymethylcellulose (CMC)

Measured: T/C

O=N[O-].O=N[O-].O=N[O-].O=N[O-].[Co+2].[NH2-].[NH2-]
inactive: [1] 115 % of control | [2] 118 % of control

NCCN1Cc2ccccc2CCc2ccccc2C1
inactive: dose: 25.0 mg/kg/injection, schedule: Q01DX009 (ip), vehicle: Klucel (hydroxypropylcellulose) (HPC) 111 % of control | dose: 50.0 mg/kg/injection, schedule: Q01DX009 (ip), vehicle: Klucel (hydroxypropylcellulose) (HPC) 105 % of control | [3] 93 % of control

NC(=S)NNC(=O)c1ccncc1
inactive: [4] 96 % of control | [5] 96 % of control | [6] 91 % of control

CC1CC(C)(C)N=C(C(C)C)O1 (configuration not stated)
inactive: [7] 100 % of control | dose: 25.0 mg/kg/injection, schedule: Q01DX009 (ip), vehicle: saline 102 % of control | [8] 98 % of control | dose: 50.0 mg/kg/injection, schedule: Q04DX003 (ip), vehicle: saline with Tween-80 95 % of control | [9] 110 % of control | [1] 93 % of control

CN(C)C(=N)[Se]
inactive: dose: 6.25 mg/kg/injection, schedule: Q01DX009 (ip), vehicle: saline 97 % of control | [7] 92 % of control

O=C1C(c2[nH]c3cc4c(cc3c2O)OCO4)=Nc2cc3c(cc21)OCO3
inactive: dose: 50.0 mg/kg/injection, schedule: Q01DX001 (ip), vehicle: saline 100 % of control | [4] 103 % of control | [5] 97 % of control | [6] 94 % of control

CC(CO)(CO)N=Cc1cc(Cl)ccc1O
inactive: [10] 91 % of control | [11] 96 % of control | [12] 109 % of control

O=C1C2C(C(=O)N1c1ccc([N+](=O)[O-])cc1)C1c3ccccc3C2C2CCCCN21 (configuration not stated)
inactive: [8] 95 % of control | dose: 50.0 mg/kg/injection, schedule: Q04DX003 (ip), vehicle: saline 104 % of control | [9] 92 % of control | [13] 97 % of control | [14] 88 % of control

COC(=O)c1ccccc1C(=O)Nc1cc(C(F)(F)F)ccc1Cl
inactive: [3] 100 % of control | [15] 103 % of control | [16] 100 % of control

COP1(=O)OCC2OC(n3cnc4c(N)ncnc43)C(O)C2O1 (configuration not stated)
inactive: dose: 100.0 mg/kg/injection, schedule: Q01DX005 (ip), vehicle: saline 95 % of control and 103 % of control | [9] 89 % of control | dose: 200.0 mg/kg/injection, schedule: Q01DX005 (ip), vehicle: saline 89 % of control and 92 % of control | dose: 200.0 mg/kg/injection, schedule: Q01DX009 (ip), vehicle: saline 92 % of control | dose: 400.0 mg/kg/injection, schedule: Q01DX005 (ip), vehicle: saline 92 % of control | dose: 400.0 mg/kg/injection, schedule: Q01DX009 (ip), vehicle: saline 98 % of control | dose: 600.0 mg/kg/injection, schedule: Q01DX005 (ip), vehicle: saline 101 % of control

CN=C1N[N+]2=C(C)CSCC2(C)S1 (configuration not stated)
inactive: [13] 98 % of control | [14] 98 % of control | dose: 400.0 mg/kg/injection, schedule: Q04DX003 (ip), vehicle: saline 89 % of control

CCCCOB1OC(C)CC(C)(C)O1 (configuration not stated)
inactive: [4] 106 % of control | [5] 97 % of control | [6] 99 % of control

CC1(C)C(=O)NC2(O)CCCC21 (configuration not stated)
inactive: dose: 15.0 mg/kg/injection, schedule: Q01DX001 (ip), vehicle: saline 101 % of control

O=C(O)c1c2c(nc3ccccc13)CCC(C(=O)O)C2 (configuration not stated)
inactive: [17] 95 % of control | [18] 95 % of control | [19] 103 % of control

CCC(c1ccc(Cl)cc1)N1CCC2(CC1)C(=O)NCN2c1ccccc1 (configuration not stated)
inactive: [20] 94 % of control | [1] 102 % of control | [21] 96 % of control | [2] 104 % of control | [22] 89 % of control | [23] 91 % of control

CNS(=O)(=O)c1ccccc1C(O)(c1ccccc1)c1ccccc1
inactive: [4] 94 % of control | [5] 100 % of control | [6] 111 % of control

O=C(O)c1ccc(Oc2nc3ccccc3s2)cc1
inactive: [20] 102 % of control | [1] 111 % of control | [21] 120 % of control | [2] 97 % of control | [23] 86 % of control

CNC(=S)N(C)c1ccccc1
inactive: [17] 100 % of control | [18] 107 % of control | [19] 104 % of control

Cc1ccc(NC(=S)Nc2ccccc2F)cc1
inactive: dose: 100.0 mg/kg/injection, schedule: Q01DX001 (ip), vehicle: saline with Tween-80 94 % of control and 100 % of control | dose: 100.0 mg/kg/injection, schedule: Q04DX002 (ip), vehicle: saline with Tween-80 100 % of control and 104 % of control | dose: 200.0 mg/kg/injection, schedule: Q01DX001 (ip), vehicle: saline with Tween-80 98 % of control and 100 % of control | dose: 200.0 mg/kg/injection, schedule: Q04DX002 (ip), vehicle: saline with Tween-80 95 % of control | dose: 400.0 mg/kg/injection, schedule: Q01DX001 (ip), vehicle: saline with Tween-80 96 % of control and 103 % of control | dose: 400.0 mg/kg/injection, schedule: Q04DX002 (ip), vehicle: saline with Tween-80 92 % of control and 104 % of control

CC(=O)CC(=O)Nc1ccc(C(=O)O)c(O)c1
inactive: [3] 93 % of control | [15] 87 % of control | [16] 93 % of control

Cc1ccc(SNc2ccccc2)cc1
inactive: [1] 92 % of control | [2] 100 % of control

CCOc1ccc(/C=N/NC(=O)CC2CCCCC2)cc1OC
inactive: [20] 90 % of control | [21] 88 % of control | [22] 90 % of control

O=C(Nc1ccsn1)c1ccc(Cl)cc1Cl
inactive: dose: 50.0 mg/kg/injection, schedule: Q01DX009 (ip), vehicle: saline with Tween-80 111 % of control | [20] 91 % of control | [21] 91 % of control

CSc1nccc(Cl)n1
inactive: [24] 105 % of control | [10] 102 % of control | [11] 96 % of control | [12] 91 % of control

O=[N+]([O-])/C=C/c1ccc(Cl)cc1Cl
inactive: dose: 20.0 mg/kg/injection, schedule: Q01DX009 (ip), vehicle: saline with Tween-80 98 % of control | dose: 20.0 mg/kg/injection, schedule: Q04DX003 (ip), vehicle: saline with Tween-80 90 % of control | dose: 25.0 mg/kg/injection, schedule: Q04DX002 (ip), vehicle: Klucel (hydroxypropylcellulose) (HPC) 106 % of control | dose: 40.0 mg/kg/injection, schedule: Q01DX009 (ip), vehicle: saline with Tween-80 102 % of control | dose: 40.0 mg/kg/injection, schedule: Q04DX003 (ip), vehicle: saline with Tween-80 101 % of control | [24] 95 % of control | dose: 50.0 mg/kg/injection, schedule: Q04DX002 (ip), vehicle: Klucel (hydroxypropylcellulose) (HPC) 100 % of control | dose: 80.0 mg/kg/injection, schedule: Q04DX003 (ip), vehicle: saline with Tween-80 111 % of control | [10] 98 % of control | [11] 89 % of control | [12] 101 % of control
